Where two headings read alike, the source gives them in different places.

Data set [1] relates to human sperm. The experiment in a line: Sperm immobilization assay (SIA), 3 h incubation, motility by CASA. The data set is classed as cell-based. Particulars: for EC50: motile fractions of human sperm incubated 3 h with increasing concentrations, 37° C., read-out: EC50 (concentration of compound required for 50% sperm motility loss). Here is the method:
Sperm Immobilization Assay (SIA): To evaluate the spermicidal effects of complexes 1-4 a highly motile fraction of pooled donor sperm(n=5) was prepared by discontinuous (90-45%) Percoll gradient (Conception Technologies, San Diego, Calif.) centrifugation and the “swim-up” method as described previously (Aitken et al., 1989, Biol. Reprod. 40:183-197). All donor specimens were obtained after informed consent and in compliance with the guidelines of the Hughes Institutional Review Board. Motile sperm (≧10×10^6/ml) were suspended in 1 ml of Biggers, Whitten, and Whittingam's medium (BWW) containing 0.3% BSA (fraction V; Sigma Chemical Co., St. Louis, Mo.) in the presence and absence of serial 2-fold dilutions of test substance (250 μM -1.9 μM) in 0.25% dimethyl sulfoxide (DMSO). For each experiment, fresh stock solutions (100 mM) of vanadium compounds were prepared in DMSO. A corresponding volume of DMSO […] was added to control sperm suspension. After 3hours of incubation at 37° C., the percentage of motile sperm was evaluated by computer-assisted sperm motion analysis (CASA) as described previously (Aitken et al., 1989, Supra). The percentages of motilities were compared with those of sham-treated control suspensions of motile sperm. The spermicidal activity of test compounds was expressed as the EC50 values (the final concentration of the compound in medium that decreases the proportion of motile sperm by 50%).
(§1) Sperm Kinematic Parameters: For CASA, 4 μl each of sperm suspension was loaded into two 20 μm Microcell chambers placed onto a counting chamber at 37° C. At least 5-8 fieldsper chamber were scanned for analysis using a Hamilton Thorne Integrated Visual Optical System (IVOS) version 10 instrument (Hamilton Thorne Research Inc., Danvers, Mass.). Each field was recorded for 30 seconds. The Hamilton Thorne computer calibrations were set at 30 frames at a frame rate of 30 images/seconds. Other settings were as follows: minimum contrast 8; minimum size 6; low-size gate, 1.0; high-size gate, 2.9; low-intensity gate, 0.6; high-intensity gate, 1.4; phase-contrast illumination; low path velocity at 10 μm/seconds and threshold straightness at 80%; magnification factor, 1.95. The performance of the analyzer was periodically checked using the playback function.
The attributes of sperm kinematic parameters evaluated included numbers of motile (MOT) and progressively (PRG) motile sperm; curvilinear velocity (VCL; a measure of the total distance traveled by a given sperm during the acquisition divided by the time elapsed); average path velocity (VAP; the spatially averaged path that eliminates the wobble of the sperm head), straight-line velocity (VSL; the straight-line distance from beginning to end of track divided by time taken), beat-cross frequency (BCF; frequency of lateral head displacement), (ALH; the mean width of sperm head oscillation), and the derivatives, straightness (STR=VSL divided by VAP×100), linearity (LIN=VSL divided by VCL×100, departure of sperm track from a straight line). Data from each individual cell track were recorded and analyzed. At least 200 sperm were analyzed for each aliquot sampled.
A non-linear regression analysis was used to find the EC50 and T1/2 values (the concentration of the compound, and the time required for 50% sperm motility loss, respectively) from the concentration effect curves.

In data set [2] the test system is human sperm. In words: Time course of sperm immobilization by CASA. In kind it is cell-based. Particulars: motile sperm incubated of each complex (footnote); motility by CASA at timed intervals. Here is the method:
[…] At timed intervals (every 5 and 10 minutes) aliquots (4μl) were transferred to two 20 μm Microcell (Conception Technologies) chambers, and sperm motility was assessed by CASA.
as §1, with “function. […]” for “function.”

Data set [3] in a line: Stability of the complexes as solids or in solution (cyclic voltammetry and UV-vis spectroscopy). Here is the method: UV/Vis Spectra: A UV/vis polarizer attachment was used for the polarization experiments. UV-vis spectra were recorded in a quartz cell or cuvette on a Beckman Model DU 7400 spectrophotometer and the spectral bands were registered in the 200-800 nm range.
Electrochemical Measurements: Electrochemical measurements were performed on a Bioanalytical Systems B/W 100b electrochemical analyzer with internal resistance (IR) compensation. The cyclic voltammograms taken in acetonitrile were obtained in a 0.1 M Bu4NPF6 (TABP) electrolyte solution with a 0.1 M Ag/AgNO3 reference electrode, a Platinum Disc working electrode, and a platinum wire auxiliary electrode. Solutions were purged with nitrogen: and scanned at 200 mV/s. Aqueous cyclic voltammograms were taken in a standard PBS solution, using a Ag/AgCl reference electrode, a glassy carbon working electrode, and a platinum wire auxiliary electrode. Solutions were purged with nitrogen and scanned at 200 mV/s. All potentials were referenced to the ferrocene-ferrocinium couple (E1/2=0.185 V vs Ag/AgCl in PBS).

As for `[O-]c1ccccc1[O-].[V+2].c1cc[cH-]c1.c1cc[cH-]c1` [Cp2V(cat) (2), Vanadocene catecholate.], in the data set with human sperm [1], the EC50 is 2400 nM. Besides, the “T1/2 (time required for 50% sperm motility loss)” value with human sperm [2] is 5.8 min.

Turning to `[O-]c1c([O-])c(Cl)c(Cl)c(Cl)c1Cl.[V+2].c1cc[cH-]c1.c1cc[cH-]c1` [Cp2V(catCl4) (1), Vanadocene tetrachloro catecholate], the solubility in water result is on record as “not soluble in water”. In addition, in data set [3] (in acetonitrile, air, by cyclic voltammetry and UV-vis spectroscopy), the “t1/2 (stability)” value is “about 2 hr”. The “spermicidal activity in words” value in the data set with human sperm [1] (in the concentration ranges examined) is listed as “no spermacidal activity”. For the same compound, in the data set on human sperm [1], the EC50 is greater than 250000 nM.

`CC(C)(C)c1cc([O-])c([O-])c(C(C)(C)C)c1.[V+4].c1cc[cH-]c1.c1cc[cH-]c1` [Cp2V(dbcat) (5), Vanadocene 1,3 ditertbutyl catecholate]: the “t1/2 (stability)” value in data set [3] was “about 2 min”.

Turning to “Vanadocene 1,3-diisopropyl catecholate [Cp2V(dpcat) (4)]”, the EC50 with human sperm [1] turned out to be 290 nM.

As to “Vanadocene mono-tertbutyl catecholate [Cp2V(mbcat) (3)]”, in the data set with human sperm [1], the EC50 was found to be 100 nM. Moreover, the “T1/2 (time required for 50% sperm motility loss)” value in the data set with human sperm [2] is 5.4 min.
